One molecule from PMC8007111, “Novel Potent Muscarinic Receptor Antagonists: Investigation on the Nature of Lipophilic Substituents in the 5- and/or 6-Positions of the 1,4-Dioxane Nucleus” (Journal of Medicinal Chemistry, 2020) can be followed below.

The test relates to MSCs from mouse bone marrow. As to the kind of experiment: MSC viability (MTS assay), dose-response. The class given is cell-based. The settings on record: 24 h. Here is the method: It is well established that bone marrow MSC behavior is influenced by a variety of signaling systems. In context, cholinergic intramural stimuli and, in particular, muscarinic signals orchestrate MSCs viability and commitment.[11],[12] Considering also the pluripotent MSC nature and their contribution to bone, blood, and systemic homeostasis,[53] viability studies on MSCs were performed to determine the functional profile of 3b, the most interesting compound in this series. […] Successively, the efficacy of 3b in contrasting cell viability induced by the well-known mAChR agonist carbachol was evaluated. […] Further research on the intracellular mechanistic outcomes of 3b on MSCs remains mandatory.
The in vitro studies were performed by using bone marrow MSCs as a model. […] After 2 weeks of initiating culture, cells were washed with PBS, detached by trypsinization, counted, and plated at the density of 5,000 cells/well in 96 culture plates (Costar Corp., Milano, Italy) in DMEM containing 10% HIFCS, penicillin, and streptomycin.
MSCs were treated with compound 3b (from 10^–4 to 10^–10 M) for 24 h. […] At the end of each procedure, the MSCs viability was measured by MTS assay. […] The quantity of the formazan product was directly proportional to the number of living cells in culture. The colored formazan was measured by reading the absorbance at 490 nm using a […] plate reader.
(In general: Tetrazolium assays rely on reduction of a dye to a coloured formazan, in cell work by metabolically active cells.)

Regarding `C[N+](C)(C)C[C@@H]1COC[C@](c2ccccc2)(C2CCCCC2)O1.[I-]` (relative stereo) [3b, 1-((2R*,6R*)-6-Cyclohexyl-6-phenyl-1,4-dioxan-2-yl)-N,N,N-trimethylmethanaminium Iodide], the “effect on MSCs viability” value by setting is: (high concentration (10^–4 M)) “down-regulate MSCs viability”; (low concentration (10^–10 M)) “increased cell viability”.
